Test results reported in patent publication US20080045507A1, “SUBSTITUTED BENZAMIDE MODULATORS OF THE HISTAMINE H3 RECEPTOR” (priority 2006, published 2008).

Experiments:
rat H3 receptor [1] = target: T1, rat H3 receptor (Rattus norvegicus, UniProt Q9QYN8); assay: Cyclic AMP accumulation, SK-N-MC subline with reporter construct and rat H3 receptor; format: cell-based; conditions: cAMP accumulation, SK-N-MC reporter cells expressing rat H3; average of results; read-out: Rat pA2 (converted)
T1 construct: expressed in transfected cells
T1 sequence (Q9QYN8 whole entry): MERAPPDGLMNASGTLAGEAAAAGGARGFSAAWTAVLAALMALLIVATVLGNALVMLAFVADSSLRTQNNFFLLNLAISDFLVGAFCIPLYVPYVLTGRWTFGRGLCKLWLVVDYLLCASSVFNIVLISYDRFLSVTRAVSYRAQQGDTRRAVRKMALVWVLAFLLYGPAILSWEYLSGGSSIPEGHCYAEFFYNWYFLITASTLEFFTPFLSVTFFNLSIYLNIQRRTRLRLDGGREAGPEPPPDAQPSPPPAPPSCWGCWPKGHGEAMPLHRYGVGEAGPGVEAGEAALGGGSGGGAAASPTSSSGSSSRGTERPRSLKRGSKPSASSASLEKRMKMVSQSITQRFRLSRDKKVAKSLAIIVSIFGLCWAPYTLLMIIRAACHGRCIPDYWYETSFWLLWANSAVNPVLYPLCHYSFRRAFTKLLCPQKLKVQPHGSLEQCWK
From the text: (§1) Sublines of SK-N-MC cells were created that expressed a reporter construct and either the human or rat H3 receptor. The pA2 values were obtained as described by Barbier et al. (2004). Data for compounds tested in these assays are presented in Table 3, as an average of the results obtained (NT=not tested).

rat H3 receptor [2] = target: T1, rat H3 receptor; assay: H3 receptor binding, cloned rat H3 receptor stably expressed in SK-N-MC cells; conditions: average of results
Protocol: (§2) Binding of compounds to the cloned human and rat H3 receptors, stably expressed in SK-N-MC cells, was performed as described by Barbier, A. J. et al. (Br. J. Pharmacol. 2004, 143(5), 649-661). Data for compounds tested in these assays are presented in Table 1 (human) and Table 2 (rat), as an average of the results obtained.

human H3 receptor [3] = target: T2, human H3 receptor (Homo sapiens, UniProt Q9Y5N1); assay: Cyclic AMP accumulation, SK-N-MC subline with reporter construct and human H3 receptor; format: cell-based; conditions: cAMP accumulation, SK-N-MC reporter cells expressing human H3; average of results; read-out: Human pA2 (converted)
T2 construct: expressed in transfected cells
T2 sequence (Q9Y5N1 whole entry): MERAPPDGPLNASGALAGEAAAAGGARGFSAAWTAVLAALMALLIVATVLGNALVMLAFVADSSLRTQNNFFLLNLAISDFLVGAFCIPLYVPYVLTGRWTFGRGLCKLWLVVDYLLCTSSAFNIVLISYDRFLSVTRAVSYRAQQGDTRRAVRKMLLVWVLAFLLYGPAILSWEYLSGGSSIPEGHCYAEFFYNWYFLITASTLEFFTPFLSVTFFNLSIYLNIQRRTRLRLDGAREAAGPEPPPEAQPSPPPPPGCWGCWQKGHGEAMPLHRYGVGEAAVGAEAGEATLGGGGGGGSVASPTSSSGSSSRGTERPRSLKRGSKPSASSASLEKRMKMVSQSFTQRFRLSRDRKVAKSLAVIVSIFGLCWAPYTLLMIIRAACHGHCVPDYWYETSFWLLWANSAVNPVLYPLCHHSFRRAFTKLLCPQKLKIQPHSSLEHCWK
From the text: as §1

human H3 receptor [4] = target: T2, human H3 receptor; assay: H3 receptor binding, cloned human H3 receptor stably expressed in SK-N-MC cells; conditions: average of results
Protocol: as §2

Row | Kb (rat H3 receptor [1]) [nM] | Ki (rat H3 receptor [2]) [nM] | Kb (human H3 receptor [3]) [nM] | Ki (human H3 receptor [4]) [nM] | SMILES
1 | 6.92 | 37 | 0.955 | 1 | O=C(c1ccc(C(O)C2CCCCC2)cc1)N1CCCN(C2CC2)CC1 (stereo not drawn) [Example 27, [4-(Cyclohexyl-hydroxy-methyl)-phenyl]-(4-cyclopropyl-[1,4]diazepan-1-yl)-methanone]
2 | 1.51 | 28 | 0.417 | 2 | O=C(c1ccc(C(O)c2ccccc2)cc1)N1CCCN(C2CC2)CC1 (stereo not drawn) [Example 30, (4-Cyclopropyl-[1,4]diazepan-1-yl)-[4-(hydroxy-phenyl-methyl)-phenyl]-methanone]
3 | 17.4 | 75 | 0.871 | 2 | CC(C)N1CCCN(C(=O)c2ccc(C(O)C3CCCCC3)cc2)CC1 (stereo not drawn) [Example 7, [4-(Cyclohexyl-hydroxy-methyl)-phenyl]-(4-isopropyl-[1,4]diazepan-1-yl)-methanone]
